Our source for the activity coefficient values is the NIST ThermoML archive (doi:10.1021/je1000582).

The nature of this series: activity coefficient (dimensionless); of the first substance listed, at infinite dilution; xn = mol fraction of the nth substance listed. Conditions: 101 kPa, Liquid, Chromatography, x1 = 0.

The structures appear in SMILES notation. ± gives the expanded uncertainty stated by the source.

For `C=CCCC` [1-pentene] + CCCC[n+]1cccc(C)c1.O=S(=O)([O-])C(F)(F)F, the activity coefficient runs as follows: (308.15 K) 8.67 ± 0.59; (318.15 K) 8.44 ± 0.58; (328.15 K) 8.23 ± 0.56; (338.15 K) 8.03 ± 0.55; (348.15 K) 7.88 ± 0.54; (358.15 K) 7.73 ± 0.53.

With `CCCOCCC` [dipropyl ether] + CCCC[n+]1cccc(C)c1.O=S(=O)([O-])C(F)(F)F, the activity coefficient stood at 10.4 ± 0.7 (308.15 K); 10.1 ± 0.7 (318.15 K); 9.86 ± 0.67 (328.15 K); 9.6 ± 0.65 (338.15 K); 9.35 ± 0.64 (348.15 K); 9.14 ± 0.62 (358.15 K).

On to `CCCCCCCC` [octane] + CCCC[n+]1cccc(C)c1.O=S(=O)([O-])C(F)(F)F, for which the activity coefficient turned out to be 49.6 ± 3.4 (308.15 K); 46.3 ± 3.2 (318.15 K); 43.4 ± 3 (328.15 K); 40.7 ± 2.8 (338.15 K); 38.5 ± 2.6 (348.15 K); 36.2 ± 2.5 (358.15 K).

For the compound `C1CCCCCC1` [cycloheptane] + CCCC[n+]1cccc(C)c1.O=S(=O)([O-])C(F)(F)F, the activity coefficient (308.15 K) stood at 16.4 ± 1.1; the activity coefficient (318.15 K) worked out at 15.4 ± 1.1; the activity coefficient (328.15 K) came out at 14.6 ± 1; the activity coefficient (338.15 K) is 13.8 ± 0.9; the activity coefficient (348.15 K) was 13.2 ± 0.9; the activity coefficient (358.15 K) turned out to be 12.5 ± 0.9.

In the case of `CCCCCCCCC` [nonane] + CCCC[n+]1cccc(C)c1.O=S(=O)([O-])C(F)(F)F, the activity coefficient (308.15 K) was 71.7 ± 4.9; the activity coefficient (318.15 K) amounted to 65.9 ± 4.5; the activity coefficient (328.15 K) was found to be 61.1 ± 4.2; the activity coefficient (338.15 K) is 56.8 ± 3.9; the activity coefficient (348.15 K) amounted to 53.2 ± 3.6; the activity coefficient (358.15 K) stood at 49.9 ± 3.4.

As to `C=CCCCC` [hex-1-ene] + CCCC[n+]1cccc(C)c1.O=S(=O)([O-])C(F)(F)F, the activity coefficient came to 11.9 ± 0.8 (308.15 K); 11.5 ± 0.8 (318.15 K); 11.2 ± 0.8 (328.15 K); 10.9 ± 0.7 (338.15 K); 10.6 ± 0.7 (348.15 K); 10.3 ± 0.7 (358.15 K).

On to `C=CCCCCCC` [oct-1-ene] + CCCC[n+]1cccc(C)c1.O=S(=O)([O-])C(F)(F)F, for which the activity coefficient (308.15 K) was 24.3 ± 1.7; the activity coefficient (318.15 K) was found to be 23.2 ± 1.6; the activity coefficient (328.15 K) worked out at 22.3 ± 1.5; the activity coefficient (338.15 K) came out at 21.5 ± 1.5; the activity coefficient (348.15 K) stood at 20.8 ± 1.4; the activity coefficient (358.15 K) was found to be 20 ± 1.4.
